Results reported in patent US8455475B2 (Gruenenthal GmbH, priority 2009, dated 2013).

Tests used:
[1] = biological target: T1, human B1R (bradykinin receptor 1) (Homo sapiens, UniProt P46663); assay: FLIPR Ca2+ assay (Fluo-4) on CHO K1 cells stably transfected with the human B1R gene (hB1R cells): % inhibition at 10 μM / IC50, agonist Lys-Des-Arg9-bradykinin; assay type: cell-based; conditions: for inhibition at 10 µM: CHO-K1, human B1R
T1 construct: expressed in transfected cells; host or cells: CHO K1 cells
T1 sequence (P46663 1-353): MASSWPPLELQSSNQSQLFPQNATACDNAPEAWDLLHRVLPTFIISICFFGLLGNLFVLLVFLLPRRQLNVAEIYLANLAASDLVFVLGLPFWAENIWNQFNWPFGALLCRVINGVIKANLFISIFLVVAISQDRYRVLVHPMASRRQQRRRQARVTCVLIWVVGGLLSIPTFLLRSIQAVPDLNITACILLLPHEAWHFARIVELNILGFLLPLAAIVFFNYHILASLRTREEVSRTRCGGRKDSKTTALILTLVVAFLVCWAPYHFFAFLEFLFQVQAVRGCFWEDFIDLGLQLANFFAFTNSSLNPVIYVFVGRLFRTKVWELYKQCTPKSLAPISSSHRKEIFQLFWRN
Description: The agonistic or antagonistic action of substances can be quantified on the bradykinin receptor 1 (B1R) of the human and rat species with ectopically expressing cell lines (CHO K1 cells) and with the aid of a Ca^2+-sensitive dyestuff (Fluo-4) in a fluorescent imaging plate reader (FLIPR). The figure in % activation is based on the Ca^2+ signal after addition of Lys-Des-Arg^9-bradykinin (0.5 nM) or Des-Arg^9-bradykinin (100 nM). Antagonists lead to a suppression of the Ca^2+ inflow after addition of the agonist. % inhibition compared with the maximum achievable inhibition is stated.
The agonistic or antagonistic action of substances can be determined on the bradykinin receptor 1 (B1R) of the human and rat species with the following assay. In accordance with this assay, the Ca^2+ inflow through the channel is quantified with the aid of a Ca^2+-sensitive dyestuff (type Fluo-4, Molecular Probes Europe BV, Leiden, Holland) in a fluorescent imaging plate reader (FLIPR, Molecular Devices, Sunnyvale, USA).
Chinese hamster ovary cells (CHO K1 cells) transfected stably with the human B1R gene (hB1R cells) or the B1R gene of the rat (rB1R cells) are used. For functional studies, these cells are plated out on black 96-well plates with a clear base (BD Biosciences, Heidelberg, Germany or Greiner, Frickenhausen, Germany) in a density of 20,000-35,000 cells/well. The cells are left overnight at 37° C. and 5% CO2 in culture medium (hB1R cells: Nutrient Mixture Ham's F12, Gibco Invitrogen GmbH, Karlsruhe, Germany or DMEM, Sigma-Aldrich, Taufkirchen, Germany; rB1R cells: D-MEM/F12, Gibco Invitrogen GmbH, Karlsruhe, Germany) with 10 vol. % FBS (foetal bovine serum, Gibco Invitrogen GmbH, Karlsruhe, Germany or PAN Biotech GmbH, Aidenbach, Germany). On the following day, the cells are loaded for 60 min at 37° C. with 2.13 μM Fluo-4 (Molecular Probes Europe BV, Leiden Holland) in HBSS buffer (Hank's buffered saline solution, Gibco Invitrogen GmbH, Karlsruhe, Germany) with 2.5 mM probenecid (Sigma-Aldrich, Taufkirchen, Germany) and 10 mM HEPES (Sigma-Aldrich, Taufkirchen, Germany). The plates are then washed 2× with HBSS buffer, and HBSS buffer which additionally contains 0.1% BSA (bovine serum albumin; Sigma-Aldrich, Taufkirchen, Germany), 5.6 mM glucose and 0.05% gelatine (Merck KGaA, Darmstadt, Germany) is added. After a further incubation of 20 minutes at room temperature, the plates are inserted into the FLIPR for the Ca^2+ measurement. Alternatively, the plates are washed with buffer A (15 mM HEPES, 80 mM NaCl, 5 mM KCl, 1.2 mM CaCl2, 0.7 mM MgSO4, 2 g/l glucose, 2.5 mM probenecid), buffer A is added and the plates are loaded with 2.5 μM Fluo-4 and 0.025% Pluronic F127 (Sigma-Aldrich, Taufkirchen, Germany). Thereafter, the cells are washed 2× with buffer A and incubated for 30 minutes at room temperature with buffer A, which additionally contains 0.05% BSA and 0.05% gelatine, and thereafter inserted into the FLIPR for the Ca^2+ measurement. The Ca^2+-dependent fluorescence is measured here before and after addition of substances (λex=488 nm, λem=540 nm). Quantification is by measurement of the highest fluorescence intensity (FC, fluorescence counts) over time.
The FLIPR protocol consists of 2 additions of substance. Test substances (10 μM) are first pipetted on to the cells and the Ca^2+ inflow is compared with the control (hB1R: Lys-Des-Arg^9-bradykinin>=50 nM; rB1R: Des-Arg^9-bradykinin 10 μM). This gives the result in % activation based on the Ca^2+ signal after addition of Lys-Des-Arg^9-bradykinin (>=50 nM) or Des-Arg^9-bradykinin (10 μM). After incubation for 10-20 minutes, Lys-Des-Arg^9-bradykinin (hB1R) or Des-Arg^9-bradykinin (rB1R) in the concentration of the EC80 is applied and the inflow of Ca^2+ is likewise determined. Antagonists lead to a suppression of the Ca^2+ inflow. % inhibition compared with the maximum achievable inhibition is calculated.
For determination of the IC50 value, the substances are added in various concentrations. […]

[2] = biological target: T2, rat B1R (bradykinin receptor 1) (Rattus norvegicus, UniProt P97583); assay: FLIPR Ca2+ assay (Fluo-4) on CHO K1 cells stably transfected with the B1R gene of the rat (rB1R cells): % inhibition at 10 μM / IC50, agonist Des-Arg9-bradykinin; assay type: cell-based; conditions: for inhibition at 10 µM: CHO-K1, rat B1R
T2 construct: expressed in transfected cells; host or cells: CHO K1 cells
T2 sequence (P97583 1-337): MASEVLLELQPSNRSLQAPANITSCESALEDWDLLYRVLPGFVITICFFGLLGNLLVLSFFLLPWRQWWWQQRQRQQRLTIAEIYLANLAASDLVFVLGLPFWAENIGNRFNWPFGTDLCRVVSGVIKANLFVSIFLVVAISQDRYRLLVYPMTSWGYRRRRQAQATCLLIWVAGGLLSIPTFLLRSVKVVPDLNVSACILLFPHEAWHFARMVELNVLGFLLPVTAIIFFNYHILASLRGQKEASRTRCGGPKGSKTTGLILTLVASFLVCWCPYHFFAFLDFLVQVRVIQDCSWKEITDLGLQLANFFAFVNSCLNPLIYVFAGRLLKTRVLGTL
How it was run: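 Loading with Fluo-4 occurs for 60 min at 37 °C, or alternatively in buffer A, before FLIPR measurement. Compounds are applied, incubated 10–20 min, and then the EC80 agonist is added. Antagonism appears as reduced peak Ca2+ signal relative to maximal inhibition.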

Row | SMILES | inhibition at 10 µM [1] [%] | inhibition at 10 µM [2] [%] | % Inhibition (human B1R) at 10 μM ([1]; human B1R, 10 µM) [%] | % Inhibition (rat B1R) at 10 μM ([2]; rat B1R, 10 µM) [%]
1 | O=C(c1ccc2c(c1)[C@@H](N1Cc3cccc(Cl)c3C1=O)CCC2)N1CCC2(CCN(c3ccncc3)CC2)C1 [Example H-15, 7-chloro-2-[(1S)-7-(8-pyridin-4-yl-3,8-diazaspiro[4.5]decane-3-carbonyl)-1,2,3,4-tetrahydro-naphthalen-1-yl]-2,3-dihydro-isoindol-1-one] | 59 | 11 |  | 
2 | COc1cc(C)c(S(=O)(=O)N[C@@H]2CCCc3ccc(C(=O)N4CCC5(CCN(c6ccncc6)CC5)C4)cc32)c(C)c1 [Example H-16, 4-methoxy-2,6-dimehtyl-N-[(1R)-7-(8-pyridin-4-yl-3,8-diazaspiro[4.5]decane-3-carbonyl)-1,2,3,4-tetrahydro-naphthalen-1-yl]-benzenesulfonic acid amide] | 100 | 102 |  | 
3 | COc1cc(C)c(S(=O)(=O)N[C@@H]2CCCc3ccc(C(=O)N4CCC5(CC4)CCN(c4ccncc4)CC5)cc32)c(C)c1 [Example H-17, 4-methoxy-2,6-dimethyl-N-[(1R)-7-(9-pyridin-4-yl-3,9-diazaspiro[5.5]undecane-3-carbonyl)-1,2,3,4-tetrahydro-naphthalen-1-yl]-benzenesulfonic acid amide] | 98 | 102 |  | 
4 | COc1cc(C)c(S(=O)(=O)N[C@H]2CCCc3ccc(C(=O)N4CCC5(CCN(c6ccncc6)CC5)C4)cc32)c(C)c1 [Example H-18, 4-methoxy-2,6-dimethyl-N-[(1S)-7-(8-pyridin-4-yl-3,8-diazaspiro[4.5]decane-3-carbonyl)-1,2,3,4-tetrahydro-naphthalen-1-yl]-benzenesulfonic acid amide] | 96 | 104 |  | 
5 | COc1cc(C)c(S(=O)(=O)N[C@H]2CCCc3ccc(C(=O)N4CCC5(CC4)CCN(c4ccncc4)CC5)cc32)c(C)c1 [Example H-19, 4-methoxy-2,6-dimethyl-N-[(1S)-7-(9-pyridin-4-yl-3,9-diazaspiro[5.5]undecane-3-carbonyl)-1,2,3,4-tetrahydro-naphthalen-1-yl]-benzenesulfonic acid amide] | 99 | 102 |  | 
6 | O=C(N[C@H]1CCc2ccc(C(=O)N3CCC4(CCN(c5ccncc5)CC4)C3)cc21)c1ccccc1Cl [Example H-20, 2-chloro-N-[(1S)-6-(8-pyridin-4-yl-3,8-diazaspiro[4.5]decane-3-carbonyl)-2,3-dihydro-1H-indecn-1-yl]-benzamide] | 100 | 105 |  | 
7 | O=C(N[C@@H]1CCc2ccc(C(=O)N3CCC4(CCN(c5ccncc5)CC4)C3)cc21)c1ccccc1Cl [Example H-21, 2-chloro-N-[(1R)-6-(8-pyridin-4-yl-3,8-diazaspiro[4.5]decane-3-carbonyl)-2,3-dihydro-1H-inden-1-yl]-benzamide] | 100 | 105 |  | 
8 | O=C(N[C@@H]1CCc2ccc(C(=O)N3CCC4(CCCN(c5ccncc5)C4)CC3)cc21)c1ccccc1Cl [Example H-26, 2-chloro-N-[(1R)-6-(8-pyridin-4-yl-3,8-diazaspiro[5.5]undecane-3-carbonyl)-2,3-dihydro-1H-inden-1-yl]-benzamide] | 46 | 101 |  | 
9 | O=C(N[C@@H]1CCc2ccc(C(=O)N3CC4(CCN(c5ccncc5)CC4)C3)cc21)c1ccccc1Cl [Example H-27, 2-chloro-N-[(1R)-6-(7-pyridin-4-yl-2,7-diazaspiro[3.5]nonane-2-carbonyl)-2,3-dihydro-1H-inden-1-yl]-benzamide] | 100 | 102 |  | 
10 | CN1CCC(N2CCC3(CCN(C(=O)c4ccc5c(c4)[C@H](NC(=O)c4ccccc4Cl)CC5)CC3)CC2)CC1 [Example H-28, 2-chloro-N-[(1R)-6-[9-(1-methyl-piperidin-4-yl)-3,9-diazaspiro[5.5]undecane-3-carobnyl]-2,3-dihydro-1H-inden-1-yl]-benzamide] | 57 | 102 |  | 
11 | CN1CCN(C(=O)C2CCC3(CC2)CCN(C(=O)c2ccc4c(c2)[C@H](NC(=O)c2ccccc2Cl)CC4)CC3)CC1 [Example H-29, 2-chloro-N-[(1R)-6-[9-(4-methyl-piperazine-1-carbonyl)-3-azaspiro[5.5]undecane-3-carbonyl]-2,3-dihydro-1H-inden-1-yl]-benzamide] | 33 | 55 |  | 
12 | CC1(C)Cc2ccc(C(=O)N3CCC4(CCN(c5ccncc5)CC4)C3)cc2C1NC(=O)c1ccccc1Cl (stereo not drawn) [Example H-47, 2-chloro-N-[2,2-dimethyl-6-(8-pyridin-4-yl-3,8-diazaspiro[4.5]decane-3-carbonyl)-1,3-dihydro-inden-1-yl]-benzamide] | 99 | 101 |  | 
13 | O=C(NC1CCc2ccc(C(=O)N3CCC4(CCN(c5ccc(C(F)(F)F)cn5)CC4)C3)cc21)c1ccccc1Cl (stereo not drawn) [Example H-48, 2-chloro-N-[6-[8-[5-(trifluoromethyl)-pyridin-2-yl]-3,8-diazaspiro[4.5]decane-3-carbonyl]-2,3-dihydro-1H-inden-1-yl]-benzamide] | 63 | 97 |  | 
14 | CN(C(=O)c1ccccc1Cl)C1CCc2ccc(C(=O)N3CCC4(CCN(c5ccncc5)CC4)C3)cc21 (stereo not drawn) [Example H-49, 2-chloro-N-methyl-N-[6-(8-pyridin-4-yl-3,8-diazaspiro[4.5]decane-3-carbonyl)-2,3-dihydro-1H-inden-1-yl]-benzamide] |  |  | 99 | 100
15 | O=C(NC1CCc2ccc(C(=O)N3CCC4(CCN(c5ccc6cnccc6c5)CC4)C3)cc21)c1ccccc1Cl (stereo not drawn) [Example H-50, 2-chloro-N-[6-(8-isoquinolin-6-yl-3,8-diazaspiro[4.5]decane-3-carbonyl)-2,3-dihydro-1H-inden-1-yl]-benzamide] | 98 | 98 |  | 
